Molecular target: T1, ΔF508-CFTR (Homo sapiens, UniProt P13569, DEL508-508)
T1 construct: host or cells: CFBE41o-, doxycycline-inducible
Assay: CFTR cell surface levels using HRP-tagged ΔF508-CFTR expressing CFBE cells, in the presence of a co-corrector
Type: cell-based
Conditions: HRP-tagged ΔF508-CFTR expressing CFBE cells, in the presence of 3 μM co-corrector; for EC50: read-out: EC50
From the text: Measuring CFTR Cell Surface Levels Using HRP-Tagged AF508-CFTR Expressing CFBE Cells
The HRP-tagged AF508-CFTR cell assay measures the expression of CFTR-ΔF508 at the plasma membrane. CFTR-ΔF508 has a folding defect leading to absence of protein at the plasma membrane. This assay is used to evaluate the capacity of compounds to increase the expression of CFTR-ΔF508 at the plasma membrane. The CFTR-ΔF508 is tagged with HRP (horse radish peroxidase enzyme) within the ECL4 (Extracellular loop 4) of CFTR (Phuan, P.-W. et al. Synergy-based small-molecule screen using a human lung epithelial cell line yields AF508-CFTR correctors that augment VX-809 maximal efficacy. Mol. Pharmacol. 86, 42-51 (2014)). When HRP-tagged AF508-CFTR is present at the plasma membrane, the HRP enzyme activity can be measured. The amount of CFTR-ΔF508 that can be rescued to the plasma membrane is correlated with the amount of functional enzyme that can be measured.
There are several ways to measure the capacity of compounds to rescue CFTR-ΔF508 to the plasma membrane; either compounds are evaluated on their own and the impact on plasma membrane levels is measured or compounds are evaluated in combination with a co-corrector, i.e. a compound that rescues CFTR-ΔF508 to the plasma membrane but rescue can be enhanced by addition of compounds due to a complementary mode of action.
Activity of Compounds in Combination with Co-Corrector:
For this purpose doxycycline-inducible AF508-CFTR-HRP expressing CFBE4lo-cells (obtained from Gergely Lukacs, McGill University) were maintained in MEM (Minimum Essential Medium, Gibco; 31095) supplemented with 10% fetal bovine serum (Hyclone; SV30160.03) under puromycin (3 μg/mL) and G418 selection (0.2 mg/mL). For compound testing, cells were seeded at 4000 cells/well in white 384-well plates (Greiner; 781080) in 50 μL of medium containing 0.5 μg/mL doxycycline and incubated for 68 hours at 37° C., 5% CO2. On day four, 10 μL of test compounds diluted in PBS (phosphate buffered saline) were added to the plates at a final DMSO concentration of 0.1%. In order to measure compound synergy with a co-corrector, 3 μM co-corrector (3-[(2R,4R)-4-({[1-(2,2-difluoro-1,3-benzodioxol-5-yl)cyclopropyl]carbonyl}amino)-7-methoxy-3,4-dihydro-2H-chromen-2-yl]benzoic acid) was added along with test compounds. All compound plates contained negative controls (DMSO) and positive controls (3 μM co-corrector). Cell plates were incubated at 33° C., 5% CO2 for 20 hours. On day five, the cells were washed five times with phosphate-buffered saline, and HRP activity was assayed by the addition of 50 μL/well of HRP substrate (SuperSignal™ West Pico Chemiluminescent Substrate, Thermo Scientific; 34080). After incubation for 15 minutes in the dark, the chemiluminescence was measured using a plate reader (EnVision®, Perkin Elmer). Raw data were normalized to percentage activity values using the equation: 100×(Sample−Negative control)/(Positive control−Negative Control).

T1 sequence (P13569 with tags, fused parts or gaps DEL508-508): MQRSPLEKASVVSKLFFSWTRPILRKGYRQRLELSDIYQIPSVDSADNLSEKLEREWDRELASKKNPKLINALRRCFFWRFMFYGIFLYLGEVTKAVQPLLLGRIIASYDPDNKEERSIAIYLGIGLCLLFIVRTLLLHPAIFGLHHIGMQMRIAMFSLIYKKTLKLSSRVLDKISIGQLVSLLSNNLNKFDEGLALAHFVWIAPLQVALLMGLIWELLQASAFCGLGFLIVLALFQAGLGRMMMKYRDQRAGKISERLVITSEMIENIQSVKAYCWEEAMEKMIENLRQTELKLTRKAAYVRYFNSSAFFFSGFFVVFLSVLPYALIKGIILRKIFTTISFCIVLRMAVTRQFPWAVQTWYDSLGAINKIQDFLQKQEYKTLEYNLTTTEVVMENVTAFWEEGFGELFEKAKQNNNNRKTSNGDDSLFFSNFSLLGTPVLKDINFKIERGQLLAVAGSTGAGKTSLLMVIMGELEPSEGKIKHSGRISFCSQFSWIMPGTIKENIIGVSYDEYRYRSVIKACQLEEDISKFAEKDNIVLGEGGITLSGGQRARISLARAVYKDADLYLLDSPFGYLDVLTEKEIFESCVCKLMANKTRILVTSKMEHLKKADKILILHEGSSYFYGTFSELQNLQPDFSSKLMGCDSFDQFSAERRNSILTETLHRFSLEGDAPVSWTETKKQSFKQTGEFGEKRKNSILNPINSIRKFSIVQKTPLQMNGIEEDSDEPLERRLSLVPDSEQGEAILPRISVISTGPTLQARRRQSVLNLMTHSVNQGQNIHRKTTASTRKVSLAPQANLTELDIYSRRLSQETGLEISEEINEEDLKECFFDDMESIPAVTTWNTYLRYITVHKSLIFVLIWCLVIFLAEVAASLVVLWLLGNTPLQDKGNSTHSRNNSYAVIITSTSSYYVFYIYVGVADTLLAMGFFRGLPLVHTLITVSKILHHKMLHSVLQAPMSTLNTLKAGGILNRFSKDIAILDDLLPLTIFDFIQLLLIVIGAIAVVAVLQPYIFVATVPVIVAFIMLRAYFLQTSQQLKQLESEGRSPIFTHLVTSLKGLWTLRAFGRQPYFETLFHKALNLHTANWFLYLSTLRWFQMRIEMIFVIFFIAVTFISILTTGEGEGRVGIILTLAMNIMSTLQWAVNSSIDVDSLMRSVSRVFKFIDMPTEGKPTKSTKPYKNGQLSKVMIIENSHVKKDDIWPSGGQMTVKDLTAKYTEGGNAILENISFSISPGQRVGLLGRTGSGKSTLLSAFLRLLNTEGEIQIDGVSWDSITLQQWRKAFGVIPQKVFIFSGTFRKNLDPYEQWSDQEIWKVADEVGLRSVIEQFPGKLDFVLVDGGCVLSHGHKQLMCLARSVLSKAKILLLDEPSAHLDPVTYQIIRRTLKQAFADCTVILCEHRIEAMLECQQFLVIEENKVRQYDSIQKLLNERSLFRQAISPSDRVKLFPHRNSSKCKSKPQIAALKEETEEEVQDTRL

Compound	% Activation [%]	EC50 [µM]
CN1CCCN(c2cc(C(=O)O)nc3c2c(C2CCC2)nn3-c2ccccc2)CC1 [compound 702, 3-cyclobutyl-4-(4-methyl-1,4-diazepan-1-yl)-1-phenyl-1H-pyrazolo[3,4-b]pyridine-6-carboxylic acid]	214.1	1.67
CN(C)C1CCN(c2cc(C(=O)O)nc3c2c(C2CCC2)nn3-c2ccccc2)CC1 [compound 737, 3-cyclobutyl-4-[4-(dimethylamino)piperidin-1-yl]-1-phenyl-1H-pyrazolo[3,4-b]pyridine-6-carboxylic acid]	343.3	1.67
CCCCN1CCCN(c2cc(C(=O)O)nc3c2c(C2CCC2)nn3-c2ccccc2)CC1 [compound 710, 4-(4-butyl-1,4-diazepan-1-yl)-3-cyclobutyl-1-phenyl-1H-pyrazolo[3,4-b]pyridine-6-carboxylic acid]	282.6	1.35
CC(C)c1nn(-c2ccc(F)cc2)c2nc(C(=O)O)cc(OCCCN3CCOCC3)c12 [compound 607, 1-(4-fluorophenyl)-4-[3-(morpholin-4-yl)propoxy]-3-(propan-2-yl)-1H-pyrazolo[3,4-b]pyridine-6-carboxylic acid]	305.5	1.98
CN(C1CCN(c2cc(C(=O)O)nc3c2c(C2CCC2)nn3-c2ccccc2)CC1)C1COC1 [compound 735, 3-cyclobutyl-4-{4-[methyl(oxetan-3-yl)amino]piperidin-1-yl}-1-phenyl-1H-pyrazolo[3,4-b]pyridine-6-carboxylic acid]	437.7	0.225
CN1CCN(c2cc(C(=O)O)nc3c2c(C2CCC2)nn3-c2ccccc2)CC1 [compound 563, 3-cyclobutyl-4-(4-methylpiperazin-1-yl)-1-phenyl-1H-pyrazolo[3,4-b]pyridine-6-carboxylic acid]	272.97	2.23
CC1(c2nn(-c3ccccc3)c3nc(C(=O)O)cc(-c4ccc(N5CCOCC5)cc4)c23)COC1 [compound 113, 3-(3-methyloxetan-3-yl)-4-[4-(morpholin-4-yl)phenyl]-1-phenyl-1H-pyrazolo[3,4-b]pyridine-6-carboxylic acid]	277	1.17
O=C(O)c1cc(N2CCC(C3CCN(C4COC4)CC3)CC2)c2c(C3CCC3)nn(-c3ccccc3)c2n1 [compound 736, 3-cyclobutyl-4-[1′-(oxetan-3-yl)[4,4′-bipiperidin]-1-yl]-1-phenyl-1H-pyrazolo[3,4-b]pyridine-6-carboxylic acid]	511.6	0.0422
CCCN1CCN(c2cc(C(=O)O)nc3c2c(C2CCC2)nn3-c2ccccc2)CC1 [compound 707, 3-cyclobutyl-1-phenyl-4-(4-propylpiperazin-1-yl)-1H-pyrazolo[3,4-b]pyridine-6-carboxylic acid]	326.3	0.341
CN1CCN(C(=O)C2CCN(c3cc(C(=O)O)nc4c3c(C3CCC3)nn4-c3ccccc3)CC2)CC1 [compound 739, 3-cyclobutyl-4-[4-(4-methylpiperazine-1-carbonyl)piperidin-1-yl]-1-phenyl-1H-pyrazolo[3,4-b]pyridine-6-carboxylic acid]	327.2	1.67
O=C(O)c1cc(N2CCC3(CC2)OCCO3)c2c(C3CCC3)nn(-c3ccccc3)c2n1 [compound 700, 3-cyclobutyl-4-(1,4-dioxa-8-azaspiro[4.5]decan-8-yl)-1-phenyl-1H-pyrazolo[3,4-b]pyridine-6-carboxylic acid]	290.9	0.128
O=C(O)c1cc(N2CCN(CCO)CC2)c2c(C3CCC3)nn(-c3ccccc3)c2n1 [compound 722, 3-cyclobutyl-4-[4-(2-hydroxyethyl)piperazin-1-yl]-1-phenyl-1H-pyrazolo[3,4-b]pyridine-6-carboxylic acid]	247	1.67
CC(C)CN1CCC(CN(C)c2cc(C(=O)O)nc3c2c(C2CCC2)nn3-c2ccccc2)CC1 [compound 564, 3-cyclobutyl-4-(methyl{[1-(2-methylpropyl)piperidin-4-yl]methyl}amino)-1-phenyl-1H-pyrazolo[3,4-b]pyridine-6-carboxylic acid]	369.1	2.45
CN1CCCN(C(=O)CCN2CCN(c3cc(C(=O)O)nc4c3c(C3CCC3)nn4-c3ccccc3)CC2)CC1 [compound 717, 3-cyclobutyl-4-{4-[3-(4-methyl-1,4-diazepan-1-yl)-3-oxopropyl]piperazin-1-yl}-1-phenyl-1H-pyrazolo[3,4-b]pyridine-6-carboxylic acid]	124.6	5
CC1(c2nn(-c3ccccc3)c3nc(C(=O)O)cc(-c4ccc(N5CCOCC5)cc4)c23)CCC1 [compound 332, 3-(1-methylcyclobutyl)-4-[4-(morpholin-4-yl)phenyl]-1-phenyl-1H-pyrazolo[3,4-b]pyridine-6-carboxylic acid]	346.12	0.917
COC(=O)N1CCC(COc2cc(C(=O)O)nc3c2c(C(C)C)nn3-c2ccc(F)cc2)CC1 [compound 663, 1-(4-fluorophenyl)-4-{[1-(methoxycarbonyl)piperidin-4-yl]methoxy}-3-(propan-2-yl)-1H-pyrazolo[3,4-b]pyridine-6-carboxylic acid]	315.5	0.0909
O=C(O)c1cc(N2CC(N3CCOCC3)C2)c2c(C3CCC3)nn(-c3ccccc3)c2n1 [compound 709, 3-cyclobutyl-4-[3-(morpholin-4-yl)azetidin-1-yl]-1-phenyl-1H-pyrazolo[3,4-b]pyridine-6-carboxylic acid]	223.9	1.67
CCOCC(=O)N1CCN(c2cc(C(=O)O)nc3c2c(C2CCC2)nn3-c2ccccc2)CC1 [compound 696, 3-cyclobutyl-4-[4-(ethoxyacetyl)piperazin-1-yl]-1-phenyl-1H-pyrazolo[3,4-b]pyridine-6-carboxylic acid]	346.8	1.67
CCOCC1(F)CCN(c2cc(C(=O)O)nc3c2c(C(C)C)nn3-c2ccc(F)cc2)CC1 [compound 666, 4-[4-(ethoxymethyl)-4-fluoropiperidin-1-yl]-1-(4-fluorophenyl)-3-(propan-2-yl)-1H-pyrazolo[3,4-b]pyridine-6-carboxylic acid]	338.35	0.253
CN1CCCC(CN(C)c2cc(C(=O)O)nc3c2c(C2CCC2)nn3-c2ccccc2)C1 (stereo not drawn) [compound 593, 3-cyclobutyl-4-{methyl [(1-methylpiperidin-3-yl)methyl]amino}-1-phenyl-1H-pyrazolo[3,4-b]pyridine-6-carboxylic acid]	313.3	1.17
CC(C)c1nn(-c2ccc(F)cc2)c2nc(C(=O)O)cc(N3CCC(C4CCN(C5COC5)CC4)CC3)c12 [compound 752, 1-(4-fluorophenyl)-4-[1′-(oxetan-3-yl)[4,4′-bipiperidin]-1-yl]-3-(propan-2-yl)-1H-pyrazolo[3,4-b]pyridine-6-carboxylic acid]	530.9	0.104
O=C(O)c1cc(OC2CCCC2)c2c(C3CCC3)nn(-c3ccccc3)c2n1 [compound 597, 3-cyclobutyl-4-(cyclopentyloxy)-1-phenyl-1H-pyrazolo[3,4-b]pyridine-6-carboxylic acid]	342.5	0.23
CC(C)c1nn(-c2ccc(F)cc2)c2nc(C(=O)O)cc(N3CCN(C4CCN(C5CC5)CC4)CC3)c12 [compound 743, 4-[4-(1-cyclopropylpiperidin-4-yl)piperazin-1-yl]-1-(4-fluorophenyl)-3-(propan-2-yl)-1H-pyrazolo[3,4-b]pyridine-6-carboxylic acid]	330.5	1.24
CN1CC(Oc2cc(C(=O)O)nc3c2c(C2CCC2)nn3-c2ccccc2)C1 [compound 601, 3-cyclobutyl-4-[(1-methylazetidin-3-yl)oxy]-1-phenyl-1H-pyrazolo[3,4-b]pyridine-6-carboxylic acid]	173.6	2.48
